The test system of series [1] is retinal ganglion cells (RGCs). The experiment in a line: Retinal ganglion cell (RGC) counts in EAE mice with acute optic neuritis, intravitreal treatment. The conditions noted are these: for RGC loss: EAE eyes with optic neuritis. As to the method: Study outline: The neuroprotective effects of nicotinamide riboside were examined in EAE mice with optic neuritis. […] To induce EAE, mice were immunized several days later with 300 μg PLP emulsified in complete Freund's adjuvant (CFA), and control mice (without EAE) were mock-immunized with phosphate buffered saline (PBS) in CFA. All mice received 200 ng intraperitoneal pertussis toxin (PT) on the day of immunization (day 0) and again on day 2.
Eyes were treated with nicotinamide riboside by intravitreal (ivt) injections with a volume of 0.8 μl/injection of a stock solution of either 0.1 M or 0.4 M nicotinamide riboside in PBS (Groups 2, 4 and 5). […] Treament with nicotinamide riboside, as well as PBS control injections, were given ivt on days 0, 4, 7 and 11. Mice were scored daily for clinical EAE, and were sacrificed on day 14 by overdose with ketamine and xylazine.
Retinas were dissected and whole-mounted for fluorescent microscopy. RGC numbers were quantified by counting FG-labeled cells in 12 standardized fields in each retina. Optic nerves were dissected and processed for histology. Cut sections stained by H & E were evaluated for the presence of inflammatory cells to determine acute optic neuritis. RGCs were compared between PBS-treated and nicotinamide riboside-treated eyes with optic neuritis to determine whether nicotinamide riboside prevents loss of neurons.

A further series has as its system optic neuritis / EAE. The experiment in a line: Incidence of optic neuritis (optic nerve histology, H & E) and clinical EAE score in PLP-immunized mice. Type of series: in vivo, SJL/J mice.

This is an account of results in patent publication US20070014833A1, “Treatment of eye disorders with sirtuin modulators” (priority 2005, published 2007).

Structures are written as SMILES.

Turning to `NC(=O)c1ccc[n+]([C@@H]2O[C@H](CO)[C@@H](O)[C@H]2O)c1` [nicotinamide riboside], the “Preserving RGCs in an acute optic neuritis model (FIG. 19)” value in series [1] is “effective”. Besides, in series [1] (100 mM treatment (Group 4) vs PBS-treated (Group 3)), the RGC loss entry is listed as “reduced”. Further, in series [1] (400 mM treatment (Group 5) vs PBS-treated (Group 3)), the RGC loss result is recorded as “completely blocked”. In addition, the “Neuroprotection of RGCs during acute optic neuritis in EAE” value in series [1] (dose-dependent manner) is recorded as “neuroprotective”. The “Toxicity to RGCs” value in series [1] (mouse, in vivo) is listed as “not toxic”. In addition, the “RGC numbers, non-EAE eyes treated vs control eyes” value in series [1] (non-EAE eyes, Group 2 vs Group 1) was “no difference”. The Inflammatory cell infiltration entry with optic neuritis / EAE (optic nerve) is given as “does not prevent”. For the same compound, in the series on optic neuritis / EAE (treated mice vs controls), the “Clinical EAE” value is “did not differ” and the “Incidence of optic neuritis” value is reported as “did not differ”.
